Assay results taken from the supplement of paper PMC10307832.

Tests used:
Assay in all cases: relative viability (nuclei count vs DMSO), 5 days (fraction); higher = more cells survive
[1] = compound: C1/C(=C\C2=CC=CS2)/C(=O)/C(=C/C3=CC=CS3)/C1 + CC(=O)c1c(C)c2cnc(Nc3ccc(N4CCNCC4)cn3)nc2n(C2CCCC2)c1=O [Palbociclib] (partner 0.5 µM)
Procedure, shortened: (§1)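 Values are medians from duplicate plates. Each reflects relative viability, defined as the nuclei count of treated wells over that of vehicle wells. Lung cancer cell lines in 1536-well plates were pin-tool dosed one day after seeding with one drug alone or with a fixed anchor-drug dose plus five library-drug doses (not always all listed) in √10 steps, then fixed, stained and imaged at 4× after 5 days.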

[2] = compound: C1=CC(=CC=C1C2=CC(=C(S2)NC(=O)N)C(=O)N)F [TPCA-1] + C[C@@H](Oc1cc(-c2cnn(C3CCNCC3)c2)cnc1N)c1c(Cl)ccc(F)c1Cl [Crizotinib] (partner 1 µM)
Procedure, shortened: as §1

[3] = compound: C1/C(=C\C2=CC=CS2)/C(=O)/C(=C/C3=CC=CS3)/C1 + N=C(N)NC(=N)NCCc1ccccc1 [Phenformin] (partner 250 µM)
Procedure, shortened: as §1

[4] = compound: C[C@]12O[C@H](C[C@]1(O)CO)n1c3ccccc3c3c4c(c5c6ccccc6n2c5c31)CNC4=O [Lestaurtinib] + CC(C)C[C@H](NC(=O)[C@H](Cc1ccccc1)NC(=O)c1cnccn1)B(O)O [Bortezomib] (partner 0.002 µM)
Procedure, shortened: as §1

Cell Line	relative viability ([1]; first compound 0.2 µM)	relative viability ([1]; first compound 0.6325 µM)	relative viability ([1]; first compound 2 µM)	relative viability ([1]; first compound 6.325 µM)	relative viability ([1]; first compound 20 µM)	relative viability ([2]; first compound 0.04 µM)	relative viability ([2]; first compound 0.1265 µM)	relative viability ([2]; first compound 0.4 µM)	relative viability ([2]; first compound 1.265 µM)	relative viability ([2]; first compound 4 µM)	relative viability ([3]; first compound 0.2 µM)	relative viability ([3]; first compound 0.6325 µM)	relative viability ([3]; first compound 2 µM)	relative viability ([3]; first compound 6.325 µM)	relative viability ([3]; first compound 20 µM)	relative viability ([4]; first compound 0.005 µM)	relative viability ([4]; first compound 0.01581 µM)	relative viability ([4]; first compound 0.05 µM)	relative viability ([4]; first compound 0.1581 µM)	relative viability ([4]; first compound 0.5 µM)
201T	0.348	0.37	0.349	0.353	0.348	1.04	0.998	1.08	1.02	1.03	0.495	0.431	0.478	0.425	0.455	1.17	1.12	1.17	1.24	0.937
NCI-H2009	0.178	0.217	0.255	–	0.208	1.06	1.05	1.03	1.05	0.891	0.511	0.52	0.493	0.453	0.426	1.01	0.967	0.801	0.755	0.167
NCI-H2228	0.784	0.697	0.61	0.793	0.686	0.589	0.489	0.487	0.364	0.277	0.422	0.297	0.369	0.335	0.357	0.994	0.805	0.629	0.476	0.185
LU99A	0.402	0.395	0.481	0.368	0.38	0.613	0.534	0.47	0.506	0.249	0.771	0.819	0.857	0.819	0.801	1.02	1.02	0.516	0.382	0.208
NCI-H1437	0.322	0.314	0.282	0.307	0.336	0.941	0.892	0.892	0.872	0.834	0.294	0.281	0.402	0.26	0.318	0.67	0.479	0.431	0.521	0.429
EKVX	0.383	0.388	0.367	–	0.409	0.979	0.777	1.04	0.97	0.738	0.252	0.247	0.218	0.231	0.249	1.1	1.26	0.999	1.19	0.679
ABC-1	0.707	0.614	0.886	0.64	0.513	1.38	1.05	0.957	0.733	0.569	0.234	0.253	0.247	0.219	0.211	0.352	0.332	0.292	0.308	0.2
NCI-H520	0.256	0.251	0.223	–	0.227	0.882	0.737	0.795	0.566	0.544	0.744	0.605	0.766	0.535	0.443	0.712	0.724	0.282	0.321	0.224
LCLC-97TM1	0.255	0.228	0.203	0.21	0.196	0.347	0.325	0.568	0.28	0.15	0.389	0.473	0.437	0.476	0.482	–	0.723	0.299	0.282	0.226
NCI-H3122	0.178	0.175	0.172	0.201	0.171	0.281	0.268	0.278	0.291	0.223	0.442	0.377	0.41	0.307	0.333	1.06	1.05	1.06	1.05	0.502
PC-14	0.668	0.563	0.523	0.435	0.501	0.818	0.864	0.891	0.832	0.615	0.823	0.762	0.611	0.539	0.631	0.993	0.778	0.83	0.623	0.434
EPLC-272H	0.326	0.327	0.356	0.213	0.345	1.02	0.93	0.868	0.888	0.58	0.289	0.318	0.298	0.238	0.276	1.02	1.15	0.603	0.828	0.486
A-427	0.546	0.552	0.519	0.481	0.5	0.856	0.817	1.09	0.879	0.625	0.346	0.417	0.273	0.292	0.278	0.98	1.05	0.835	0.446	0.212
